Assay results as given in patent US20240216352A1 (priority 2022, published 2024).
Values joined by “and” are separate entries in the source; they are usually repeats but may differ in a detail not shown here. Identical values can stand only once.

Legend:
[1] = tested on: participants with PPF; test: Phase 2 study, PPF cohort: efficacy (ppFVC, FVC); format: in vivo, human; conditions: for Difference (S.E.) in rate of decline in FVC (% Predicted), 30 mg - placebo: 30 mg BID
Experimental: (§1) A total of 123 participants with PPF were randomized. Participants (age ≥21 years) were randomized (1:1:1) to receive 30 mg or 60 mg Compound A or PBO twice daily for 26 weeks. […] Immunosuppressive medications (mycophenolate mofetil, mycophenolic acid, azathioprine and/or tacrolimus) were permitted only if dosing is stable for ≥6 months prior to screening. If receiving antifibrotic agents pirfenidone or nintedanib, patients had to receive a stable dosage for ≥3 months prior to screening and during the screening period; if not receiving pirfenidone or nintedanib, patients had to be naive to both drugs or not have received either 4 weeks prior to Day 1. A total of 47 (38.2%) subjects were receiving antifibrotic treatment (with or without immunosuppression therapy). Of those subjects, 34 were being treated with nintedanib and 13 with pirfenidone. Participants were stratified by usual interstitial pneumonia (UIP) pattern (presence versus absence) and background therapy (antifibrotics+/−ILD-targeted immunosuppression versus ILD-targeted immunosuppression alone versus none). UIP pattern was present in 52% of subjects and unclassifiable ILD was the most common disease categorization.
The study was not powered to detect statistical significance (no formal testing). No target effect size was defined in the study design. There were two estimand approaches for analysis: • Treatment Policy: Effect of treatment with dose reduction as part of treatment regimen.
While-On Treatment: Effect of treatment without dose reduction.
The main efficacy endpoint, rate of FVC decline (in % of predicted) from baseline to wk-26 in the PPF cohort, was estimated using a linear mixed-effects model utilizing all FVC timepoints. It was analyzed under a primary estimand (utilizing all data, treatment policy strategy), and under supplementary estimand (utilizing all data up to the point of dose reduction, while-on-treatment strategy). Analysis was performed in the overall population as well as in sub-groups by 1) background anti-fibrotic treatment or not 2) UIP radiographic pattern (presence or not). The mean baseline ppFVC was 66.7% for the PPF cohort.

[2] = tested on: participants with PPF; test: Phase 2 study, PPF cohort: safety and blood pressure; format: in vivo, human; conditions: for Treatment discontinuations: 26-week treatment phase; for Nadir postdose reduction from baseline in mean seated systolic blood pressure: day 1
Experimental: as §1
Patient is experiencing any of the following, confirmed by retest within 15 minutes: • Seated systolic blood pressure <85 mmHg • Seated diastolic blood pressure <55 mmHg • Orthostatic hypotension
Patient is experiencing symptoms that, in the investigator's opinion, could be associated with a reduction in blood pressure and is also experiencing at least one of the following, confirmed by retest within 15 minutes: • Seated systolic blood pressure <100 mmHg or seated diastolic blood pressure <60 mmHg • Decrease of seated systolic blood pressure of ≥20 mmHg from the previous visit or decrease of seated diastolic blood pressure of ≥10 mmHg from the previous visit • Orthostatic hypotension • Orthostatic tachycardia

[3] = molecular target: T1, LPA1 (Homo sapiens, UniProt Q92633); test: LPA1 antagonism (Kb) in CHO cells overexpressing human LPA1; format: cell-based; set-up: expressed in transfected cells; host or cells: CHO cells
Excerpt: (§2) Compound A is currently in clinical development as a therapy for IPF and PF-ILD.

[4] = molecular target: T1, LPA1; test: LPA1 antagonism (Kb) in normal human lung fibroblasts; format: cell-based; set-up: LPA1Kb=5.9 nM in normal human lung fibroblasts; endogenous in cells; host or cells: normal human lung fibroblasts
Excerpt: as §2

T1 sequence (Q92633 whole entry): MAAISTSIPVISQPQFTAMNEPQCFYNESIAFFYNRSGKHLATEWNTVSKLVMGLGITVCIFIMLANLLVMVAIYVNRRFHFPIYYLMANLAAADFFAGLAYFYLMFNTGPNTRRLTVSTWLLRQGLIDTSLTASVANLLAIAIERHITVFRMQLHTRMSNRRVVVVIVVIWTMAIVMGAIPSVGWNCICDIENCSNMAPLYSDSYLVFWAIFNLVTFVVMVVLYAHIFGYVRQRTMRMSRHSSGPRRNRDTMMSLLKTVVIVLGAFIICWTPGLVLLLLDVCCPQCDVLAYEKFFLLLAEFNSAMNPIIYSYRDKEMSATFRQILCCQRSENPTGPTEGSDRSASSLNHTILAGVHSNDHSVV

## CCCN(C)C(=O)OCc1c(-c2ccc(O[C@H]3CCC[C@H](C(=O)O)C3)c(C)n2)nnn1C [Compound A, (1S,3S)-3-((2-methyl-6-(1-methyl-5-(((methyl(propyl)carbamoyl)-oxy)methyl)-1H-1,2,3-triazol-4-yl)pyridin-3-yl)oxy)cyclohexane-1-carboxylic acid]
[1]; UIP absent, primary estimand (treatment policy)
  Difference (S.E.) in rate of decline in FVC (% Predicted), 30 mg - placebo: 2.25 (2.13) % Predicted
[1]; UIP absent, supplementary estimand (while on treatment)
  Difference (S.E.) in rate of decline in FVC (% Predicted), 30 mg - placebo: 2.26 (2.28) % Predicted
[1]; UIP present, primary estimand (treatment policy)
  Difference (S.E.) in rate of decline in FVC (% Predicted), 30 mg - placebo: 0.88 (1.6) % Predicted
[1]; UIP present, supplementary estimand (while on treatment)
  Difference (S.E.) in rate of decline in FVC (% Predicted), 30 mg - placebo: 1.28 (1.61) % Predicted
[1]; not receiving antifibrotic treatment, primary estimand (treatment policy)
  Difference (S.E.) in rate of decline in FVC (% Predicted), 30 mg - placebo: 1.28 (1.63) % Predicted
[1]; not receiving antifibrotic treatment, supplementary estimand (while on treatment)
  Difference (S.E.) in rate of decline in FVC (% Predicted), 30 mg - placebo: 1.34 (1.66) % Predicted
[1]; overall, primary estimand (treatment policy)
  Difference (S.E.) in rate of decline in FVC (% Predicted), 30 mg - placebo: 1.57 (1.29) % Predicted
[1]; overall, supplementary estimand (while on treatment)
  Difference (S.E.) in rate of decline in FVC (% Predicted), 30 mg - placebo: 1.78 (1.34) % Predicted
[1]; receiving antifibrotic treatment, primary estimand (treatment policy)
  Difference (S.E.) in rate of decline in FVC (% Predicted), 30 mg - placebo: 1.99 (2.12) % Predicted
[1]; receiving antifibrotic treatment, supplementary estimand (while on treatment)
  Difference (S.E.) in rate of decline in FVC (% Predicted), 30 mg - placebo: 2.58 (2.25) % Predicted
[1]; 30 mg and 60 mg BID
  Dose response of efficacy (ppFVC decline): Clear dose response
[1]; 60 mg BID, UIP absent, primary estimand (treatment policy)
  Difference (S.E.) in rate of decline in FVC (% Predicted), 60 mg - placebo: 3.81 (2.02) % Predicted
[1]; 60 mg BID, UIP absent, supplementary estimand (while on treatment)
  Difference (S.E.) in rate of decline in FVC (% Predicted), 60 mg - placebo: 3.80 % Predicted and 3.8 (2.17) % Predicted
[1]; 60 mg BID, UIP present, primary estimand (treatment policy)
  Difference (S.E.) in rate of decline in FVC (% Predicted), 60 mg - placebo: 2.49 (1.61) % Predicted
[1]; 60 mg BID, UIP present, supplementary estimand (while on treatment)
  Difference (S.E.) in rate of decline in FVC (% Predicted), 60 mg - placebo: 2.12 % Predicted and 2.12 (1.62) % Predicted
[1]; 60 mg BID, not receiving antifibrotic treatment, primary estimand (treatment policy)
  Difference (S.E.) in rate of decline in FVC (% Predicted), 60 mg - placebo: 2.85 (1.6) % Predicted
[1]; 60 mg BID, not receiving antifibrotic treatment, supplementary estimand (while on treatment)
  Difference (S.E.) in rate of decline in FVC (% Predicted), 60 mg - placebo: 2.61 % Predicted and 2.61 (1.63) % Predicted
[1]; 60 mg BID, overall, primary estimand (treatment policy)
  Difference (S.E.) in rate of decline in FVC (% Predicted), 60 mg - placebo: 3.2 % Predicted and 3.15 (1.27) % Predicted
[1]; 60 mg BID, overall, supplementary estimand (while on treatment)
  Difference (S.E.) in rate of decline in FVC (% Predicted), 60 mg - placebo: 2.9 % Predicted and 2.94 % Predicted and 2.94 (1.32) % Predicted
[1]; 60 mg BID, receiving antifibrotic treatment, primary estimand (treatment policy)
  Difference (S.E.) in rate of decline in FVC (% Predicted), 60 mg - placebo: 3.74 (2.1) % Predicted
[1]; 60 mg BID, receiving antifibrotic treatment, supplementary estimand (while on treatment)
  Difference (S.E.) in rate of decline in FVC (% Predicted), 60 mg - placebo: 3.28 % Predicted and 3.28 (2.21) % Predicted
[1]; 60 mg BID, week 26
  Adjusted mean treatment difference in absolute change in FVC vs placebo: 87.4 mL
[1]; irrespective of background antifibrotics or of UIP pattern
  Consistency of efficacy across sub-groups: Efficacy consistent in all sub-groups
[2]; PPF cohort
  Hepatobiliary toxicity: No hepatobiliary toxicity
  Tolerability and safety findings: well-tolerated, demonstrated no unexpected safety findings
[2]; PPF, 30 mg
  Low BP thresholds (events): 30%
  Nadir postdose reduction from baseline in mean seated systolic blood pressure: −10.7 mmHg
[2]; PPF, 30 mg BID (n = 40)
  Asymptomatic blood pressure reduction (prespecified criteria): 9 (22.5) no. (%)
  COVID-19: 6 (15.0) no. (%)
  Cough: 3 (7.5) no. (%)
  Deaths due to TEAEs: 0 no. (%)
  Diarrhea: 6 (15.0) no. (%)
  Discontinuations due to TEAEs: 1 no. (%) and 1 (2.5) no. (%)
  Dizziness: 0 no. (%)
  Dose reductions: 6 (15.0) no. (%)
  Dyspnea: 2 (5.0) no. (%)
  Hypertension: 0 no. (%)
  Hypotension: 4 (10.0) no. (%)
  Nausea: 4 (10.0) no. (%)
  Orthostatic hypotension (TEAE): 2 (5.0) no. (%)
  Orthostatic hypotension within asymptomatic blood pressure reduction: 6 (15.0) no. (%)
  Orthostatic hypotension within symptomatic blood pressure reduction: 1 (2.5) no. (%)
  Rash: 3 (7.5) no. (%)
  Symptomatic blood pressure reduction (prespecified criteria): 2 (5.0) no. (%)
  Vomiting: 3 (7.5) no. (%)
  ≥1 TEAE: 33 (82.5) no. (%)
  ≥1 TEAE related to study drug: 7 (17.5) no. (%)
  ≥1 TESAE: 4 (10.0) no. (%)
[2]; PPF, 30 mg BID
  Treatment discontinuations: 7.5%
[2]; PPF, 60 mg BID (n = 42)
  Asymptomatic blood pressure reduction (prespecified criteria): 13 (31.0) no. (%)
  COVID-19: 6 (14.3) no. (%)
  Cough: 5 (11.9) no. (%)
  Deaths due to TEAEs: 0 no. (%)
  Diarrhea: 3 (7.1) no. (%)
  Discontinuations due to TEAEs: 0 no. (%)
  Dizziness: 4 (9.5) no. (%)
  Dose reductions: 5 (11.9) no. (%)
  Dyspnea: 0 no. (%)
  Hypertension: 1 (2.4) no. (%)
  Hypotension: 3 (7.1) no. (%)
  Nausea: 1 (2.4) no. (%)
  Orthostatic hypotension (TEAE): 4 (9.5) no. (%)
  Orthostatic hypotension within asymptomatic blood pressure reduction: 11 (26.2) no. (%)
  Orthostatic hypotension within symptomatic blood pressure reduction: 4 (9.5) no. (%)
  Rash: 0 no. (%)
  Symptomatic blood pressure reduction (prespecified criteria): 6 (14.3) no. (%)
  Vomiting: 0 no. (%)
  ≥1 TEAE: 28 (66.7) no. (%)
  ≥1 TEAE related to study drug: 11 (26.2) no. (%)
  ≥1 TESAE: 5 (11.9) no. (%)
[2]; PPF, 60 mg BID
  Treatment discontinuations: 4.8%
[2]; PPF, 60 mg group
  Orthostatic hypotension (asymptomatic and symptomatic) versus other groups: higher in the 60 mg group than for other groups
[2]; PPF, 60 mg
  Nadir postdose reduction from baseline in mean seated systolic blood pressure: −12.7 mmHg
[3]
  Kb: 6.9 nM
[4]
  Kb: 5.9 nM
